“Also recorded” adds a separate entry of the source. Like-named read-outs stand apart in the source and are kept apart here.
How the values were obtained:
[1] = target: T1, human dopamine transporter (hDAT) (Homo sapiens, UniProt Q01959); test: Radioligand binding to cloned hDAT, [3H]WIN35428, HEK-293 cell membranes; settings: for Binding at hDAT compared to PRC200-SS: in words
T1 construct: expressed in transfected cells; host or cells: HEK-293, stably transfected
Protocol: (§1) HEK-293 cells expressing the recombinant hSERT or hDAT were incubated with Dulbecco's modified Eagles medium (MEM) supplemented with 0.1 mM nonessential amino acid solution for MEM, 5% v/v fetal bovine serum and 1 U/mL penicillin/streptomycin solution. Cells expressing the hNET transporter were incubated with Dulbecco's modified Eagles medium supplemented with 10% v/v fetal bovine serum and 100 U/mL penicillin/streptomycin solution and 2 mM L-glutamine. The cells were grown until 70-80% confluent on 175 cm^2 flasks in a humidified 10% CO2/90% air environment at 37° C., with the selecting antibiotic Geneticin sulfate at 250 μg/mL. The cells were incubated in 10% CO2, 90% air at 37° C. and 100% humidity.
(§2) Cell membranes containing hSERT, hNET, or hDAT were prepared from the cell lines to assay ligand binding for each of the transporters. […] The washed cells were incubated for 5 minutes at 37° C. in 10 mL solution 1 containing 100 mM ethylene glycol-bis N,N,N′,N′-tetraacetic acid (EGTA). The cells were then scraped from the flask surface with a rubber spatula, placed into a centrifuge tube, and collected by centrifugation at 1000×g for 5 minutes at 4° C. The resulting supernatant was discarded, and the cell pellet was resuspended in 0.5 to1.0 mL of the appropriate binding buffer (described below). The resuspended cell pellet was homogenized using a Polytron for 10 seconds at setting 6. The resulting homogenate was centrifuged at about 36,000×g for 10 minutes at 4° C. The supernatant was discarded, and the pellet was resuspended in the same volume of the appropriate binding buffer and centrifuged again. The supernatant was discarded, and the final pellet containing cell membranes was resuspended in the appropriate binding buffer and stored at −80° C. until use.
To assess binding to the cloned hDAT, cells expressing hDAT were homogenized in 50 mM Tris-HCl with 120 mM NaCl (pH 7.4). The binding reaction contained 15 μg cell membrane protein, 1 nM [^3H]WIN35428 (WIN35428, [N-methyl-^3H], specific activity 85.9 Ci/mmol; PerkinElmer, Boston, Mass.), and varying concentrations of either unlabeled WIN35428 or the test compound. A reaction to determine non-specific binding contained 15 μg cell membrane protein, 1 nM [^3H]WIN35428, and 10 μM final concentration of unlabeled WIN35428. The reactions were incubated at 22° C. for 1 hour. Following incubation, the reactions were terminated by rapid filtration through separate GF/B filter strips pretreated with 0.2% polyethylenimine in a 48-well Brandel cell harvester. The cell membrane-containing filter strips were then rinsed five times with ice-cold 0.9% NaCl. After rinsing, individual filters were cut from the strip and placed in a scintillation vial containing 6.5 mL of Redi-Safe (Beckman-Coulter, Fullerton, Calif.).
(§3) The program was modified to calculate the Hill coefficient (nH). Data are presented as geometric mean±S.E.M. of at least three independent experiments. One-component models and two-component models were compared using the root mean square error of each fit and the F test.

[2] = target: T2, human serotonin transporter (hSERT) (Homo sapiens, UniProt P31645); test: Radioligand binding to cloned hSERT, [3H]citalopram, HEK-293 cell membranes; settings: for Kd: Geometric Mean ± SEM, HCl salts, read-out: Equilibrium Dissociation Constant (KD) for Transporter Binding, hSERT (S); for Binding at hSERT compared to PRC200-SS: in words
T2 construct: expressed in transfected cells; host or cells: HEK-293, stably transfected
T2 sequence (P31645 whole entry): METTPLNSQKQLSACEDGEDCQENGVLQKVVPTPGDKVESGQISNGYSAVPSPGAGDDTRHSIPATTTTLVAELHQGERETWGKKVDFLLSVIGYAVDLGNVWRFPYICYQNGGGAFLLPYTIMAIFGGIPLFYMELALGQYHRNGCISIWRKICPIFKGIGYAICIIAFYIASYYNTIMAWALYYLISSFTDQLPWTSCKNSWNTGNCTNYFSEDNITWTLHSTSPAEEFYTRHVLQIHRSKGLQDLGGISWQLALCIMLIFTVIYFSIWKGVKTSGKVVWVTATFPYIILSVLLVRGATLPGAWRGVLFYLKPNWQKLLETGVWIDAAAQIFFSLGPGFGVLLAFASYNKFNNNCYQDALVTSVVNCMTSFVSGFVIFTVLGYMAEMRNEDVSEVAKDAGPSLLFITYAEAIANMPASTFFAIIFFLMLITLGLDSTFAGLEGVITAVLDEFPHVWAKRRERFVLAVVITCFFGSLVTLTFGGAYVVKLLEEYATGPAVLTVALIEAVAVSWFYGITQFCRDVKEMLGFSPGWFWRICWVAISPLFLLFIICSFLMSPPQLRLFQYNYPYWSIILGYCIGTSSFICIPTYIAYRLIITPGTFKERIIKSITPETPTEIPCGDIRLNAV
Protocol: as §1, §2
Radioligand binding assays for the indicated transporters were performed as follows. To assess binding to the cloned hSERT, cells expressing hSERT were homogenized in 50 mM Tris-HCl with 120 mM NaCl and 5 mM KCl (pH 7.4). The binding reaction consisted of 10 μg cell membrane protein, […] [^3H]citalopram (citalopram, [N-methyl-^3H], specific activity 79.0 Ci/mmol; PerkinElmer, Boston, Mass.), and varying concentrations of either unlabeled citalopram or the test compound. A reaction to determine non-specific binding consisted of 10 μg cell membrane protein, 0.5 nM [^3H]citalopram, and 1 μM final concentration of unlabeled citalopram. The reactions were incubated at 22° C. for 60 minutes. Following incubation, the reactions were terminated by rapid filtration through separate GF/B filter strips pretreated with 0.2% polyethylenimine in a 48-well Brandel cell harvester. The cell membrane-containing filter strips were then rinsed five times with ice-cold 0.9% NaCl. After rinsing, individual filters were cut from the strip and placed in a scintillation vial containing 6.5 mL of Redi-Safe (Beckman-Coulter, Fullerton, Calif.).
as §3

hSERT, hNET, hDAT = test: Human transporter binding: rank order and range of potency over the three transporters; settings: for Potency (rank-order of potency of binding; S = hSERT, N = hNET, D = hDAT): from KD values; for Potency Range (difference between most potent and least potent binding): ratio of KD over hSERT, hNET, hDAT
Description: as §3

[3] = target: T3, human norepinephrine transporter (hNET) (Homo sapiens, UniProt P23975); test: Radioligand binding to cloned hNET, [3H]nisoxetine, HEK-293 cell membranes; settings: for Kd: Geometric Mean ± SEM, HCl salts, read-out: Equilibrium Dissociation Constant (KD) for Transporter Binding, hNET (N)
T3 construct: expressed in transfected cells; host or cells: HEK-293, stably transfected
T3 sequence (P23975 whole entry): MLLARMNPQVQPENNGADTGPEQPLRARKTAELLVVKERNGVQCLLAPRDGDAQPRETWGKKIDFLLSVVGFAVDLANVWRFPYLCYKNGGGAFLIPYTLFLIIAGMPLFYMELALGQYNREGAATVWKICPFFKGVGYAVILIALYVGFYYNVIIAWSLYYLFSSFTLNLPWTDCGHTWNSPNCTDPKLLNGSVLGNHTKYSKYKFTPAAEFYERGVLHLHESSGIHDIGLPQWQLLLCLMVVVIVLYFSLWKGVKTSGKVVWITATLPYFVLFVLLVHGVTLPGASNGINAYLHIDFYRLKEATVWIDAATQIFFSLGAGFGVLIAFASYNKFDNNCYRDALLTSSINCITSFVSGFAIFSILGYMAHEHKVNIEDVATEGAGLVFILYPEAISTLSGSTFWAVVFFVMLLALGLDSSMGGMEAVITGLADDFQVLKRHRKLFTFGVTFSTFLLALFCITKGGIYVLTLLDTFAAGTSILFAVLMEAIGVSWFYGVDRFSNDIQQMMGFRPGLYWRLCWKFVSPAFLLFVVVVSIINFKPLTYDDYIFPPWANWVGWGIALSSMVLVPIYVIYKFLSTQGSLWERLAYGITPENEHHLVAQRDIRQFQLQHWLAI
Protocol: as §1, §2
To assess binding to the cloned hNET, cells expressing hNET were homogenized in 50 mM Tris-HCl with 300 mM NaCl and 5 mM KCl (pH 7.4). The binding reaction consisted of 5 μg cell membrane protein, 0.5 nM [^3H]nisoxetine (nisoxetine HCl, [N-methyl-^3H], specific activity 82.0 Ci/mmol; Amersham, Arlington Hts., Ill.), and varying concentrations of either unlabeled nisoxetine or the test compound. A reaction to determine non-specific binding consisted of 5 μg cell membrane protein, 0.5 nM [^3H]nisoxetine, and 1 μM final concentration of unlabeled nisoxetine. The reactions were incubated at 22° C. for 60 minutes. Following incubation, the reactions were terminated by rapid filtration through separate GF/B filter strips pretreated with 0.2% polyethylenimine in a 48-well Brandel cell harvester. The cell membrane-containing filter strips were then rinsed five times with ice-cold 0.9% NaCl. After rinsing, individual filters were cut from the strip and placed in a scintillation vial containing 6.5 mL of Redi-Safe (Beckman-Coulter, Fullerton, Calif.).
as §3

[4] = Geometric Mean ± SEM, HCl salts, read-out: Equilibrium Dissociation Constant (KD) for Transporter Binding, hDAT (D)

T1 sequence (Q01959 whole entry): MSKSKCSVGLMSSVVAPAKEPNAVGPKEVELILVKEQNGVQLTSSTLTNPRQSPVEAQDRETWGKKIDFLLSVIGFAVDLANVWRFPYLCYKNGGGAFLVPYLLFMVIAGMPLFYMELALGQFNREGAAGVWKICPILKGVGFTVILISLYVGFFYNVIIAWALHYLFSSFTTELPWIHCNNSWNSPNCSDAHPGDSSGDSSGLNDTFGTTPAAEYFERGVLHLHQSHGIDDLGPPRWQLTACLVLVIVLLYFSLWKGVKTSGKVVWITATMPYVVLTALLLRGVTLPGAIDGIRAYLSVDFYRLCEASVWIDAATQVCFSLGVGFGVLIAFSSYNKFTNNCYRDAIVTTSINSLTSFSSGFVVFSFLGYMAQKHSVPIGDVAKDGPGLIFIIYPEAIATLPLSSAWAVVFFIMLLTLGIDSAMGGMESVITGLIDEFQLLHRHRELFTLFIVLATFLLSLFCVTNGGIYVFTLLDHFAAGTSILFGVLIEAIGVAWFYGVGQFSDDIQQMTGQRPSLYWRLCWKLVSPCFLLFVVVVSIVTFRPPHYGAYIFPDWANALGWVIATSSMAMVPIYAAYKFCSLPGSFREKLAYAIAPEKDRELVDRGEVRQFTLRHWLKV

Row | SMILES | Kd [1] | Kd [2] | Binding at hSERT compared to PRC200-SS [2] | Potency (rank-order of potency of binding; S = hSERT, N = hNET, D = hDAT) (hSERT, hNET, hDAT) | Potency Range (difference between most potent and least potent binding) (hSERT, hNET, hDAT) | Kd [3] | Kd [1, 4] | Binding at hDAT compared to PRC200-SS [1] | Binding at hSERT compared to PRC200-SS ([2]; listed as MCJ001-NH2-cyc-SS) | Potency (rank-order of potency of binding; S = hSERT, N = hNET, D = hDAT) (hSERT, hNET, hDAT; listed as MCJ001-NH2-cyc-SS) | Binding at hNET compared to PRC200-SS ([3]; in words)
1 | CNC[C@@H](c1ccc2ccccc2c1)[C@@H](N)c1ccccc1 (racemic) [MCJ001-NH2-(±)-RR, (2R,3R)-N1-methyl-2-(naphthalen-2-yl)-3-phenylpropane-1,3-diamine] | 28 ± 4 nM | 1.27 ± 0.06 nM | greater binding at hSERT | S > N > D | 22 fold | 2.5 ± 0.1 nM | – | – | – | – | –
2 | CNCC[C@H](Oc1cccc2ccccc12)c1cccs1 [Duloxetine, reference compound] | – | – | – | S > N > D | – | – | – | – | – | – | –
3 | c1ccc([C@H]2OCNC[C@@H]2c2ccc3ccccc3c2)cc1 [MCJ000-OH-Cyc-SS, (5S,6S)-5-(naphthalen-2-yl)-6-phenyl-1,3-oxazinane] | – | 8 ± 1 nM | – | S > D > N | 41 fold | 99 ± 6 nM | 330 ± 50 nM | – | – | – | –
4 | CNC[C@@H](c1ccc2ccccc2c1)[C@@H](Cl)c1ccccc1 [MCJ001-Cl-RR, (2R,3R)-3-chloro-N-methyl-2-(naphthalen-2-yl)-3-phenylpropan-1-amine] | – | 35 ± 2 nM | – | S > N > D | 8.3 fold | 234 ± 5 nM | 290 ± 20 nM | – | – | – | –
5 | CNC[C@@H](c1ccc2ccccc2c1)[C@H](Cl)c1ccccc1 [MCJ001-Cl-SR, (2R,3S)-3-chloro-N-methyl-2-(naphthalen-2-yl)-3-phenylpropan-1-amine] | – | 55 ± 5 nM | – | S > D > N | 13 fold | 700 ± 50 nM | 350 ± 20 nM | – | – | – | –
6 | CNC[C@H](c1ccc2ccccc2c1)[C@H](OCCCCO[C@H](c1ccccc1)[C@H](CNC)c1ccc2ccccc2c1)c1ccccc1 [MCJ001-Dimer4-SS, (2S,2′S,3S,3′S)-3,3′-(butane-1,4-diylbis(oxy))bis(N-methyl-2-(naphthalen-2-yl)-3-phenylpropan-1-amine)] | – | 94 ± 10 nM | – | S > D > N | 2.8 fold | 259 ± 5 nM | 240 ± 1 nM | – | – | – | –
7 | CNC[C@@H](c1ccc2ccccc2c1)[C@@H](F)c1ccccc1 [MCJ001-F-RR, (2R,3R)-3-fluoro-N-methyl-2-(naphthalen-2-yl)-3-phenylpropan-1-amine] | 150 ± 9 nM | 16 ± 1 nM | – | S > D > N | 11 fold | 170 ± 10 nM | – | – | – | – | –
8 | CN1CN[C@H](c2ccccc2)[C@@H](c2ccc3ccccc3c2)C1 [MCJ001-NH2-Cyc-SS, (4S,5S)-1-methyl-5-(naphthalen-2-yl)-4-phenylhexahydropyrimidine] | 7.7 ± 0.6 nM | 0.26 ± 0.02 nM | markedly enhanced potency at binding to hSERT | S>D>N | 50 fold | 13 ± 1 nM | – | several fold enhanced potency at binding to hDAT; also recorded: several fold more potent binding at hDAT | greater binding at hSERT | S > D > N | lower potency of binding to hNET
9 | CNC[C@H](c1ccc2ccccc2c1)[C@@H](N)c1ccccc1 [MCJ001-NH2-RS, (2S,3R)-N1-methyl-2-(naphthalen-2-yl)-3-phenylpropane-1,3-diamine] | – | 100 ± 7 nM | – | N > S > D | 4.9 fold | 78 ± 4 nM | 380 ± 30 nM | – | – | – | –
10 | CN1CO[C@@H](c2ccccc2)[C@H](c2ccc3ccccc3c2)C1 [MCJ001-OH-Cyc-RR, (5R,6R)-3-methyl-5-(naphthalen-2-yl)-6-phenyl-1,3-oxazinane] | – | 240 ± 20 nM | – | D > S > N | 2.6 fold | 460 ± 50 nM | 180 ± 20 nM | – | – | – | –
11 | C[N+]1(C)CN[C@H](c2ccccc2)[C@@H](c2ccc3ccccc3c2)C1.[Cl-] [MCJ002-NH2-Cyc-SS, (4S,5S)-1,1-dimethyl-5-(naphthalen-2-yl)-4-phenylhexahydropyrimidin-1-ium chloride] | 18 ± 2 nM | 1.9 ± 0.2 nM | greater binding at hSERT | S > D > N | 53 fold | 100 ± 10 nM | – | Enhanced binding to hDAT | – | – | –
12 | CCN(CC)C(=O)C1(c2ccccc2)CC1CN (stereo not shown) [Milnacipran, reference compound] | – | – | – | S > N > D | – | – | – | – | – | – | –
13 | CCOc1ccccc1OC(c1ccccc1)C1CNCCO1 (stereo not shown) [Reboxetine, reference compound] | – | – | – | N > S > D | – | – | – | – | – | – | –
